Results as given in patent US20220227735A1, “THERAPEUTIC METHODS AND COMPOUNDS” (RUTGERS, THE STATE UNIVERSITY OF NEW JERSEY, priority 2019, published 2022).
Where two headings read alike, the source gives them in different places.

Tests used:
[1] = biological target: T1, Plasmodium falciparum PKG (PfPKG) (Plasmodium falciparum, UniProt Q8I719); assay: PfPKG IMAP fluorescence polarization kinase assay; assay type: biochemical
T1 construct: Full length PfPKG was cloned into the pTrcHisC vector for expression in BL21 (DE3) Star cells; His tag (pTrcHisC vector) (N); made in house; host or cells: E. coli BL21 (DE3) Star
Description: Full length PfPKG was cloned into the pTrcHisC vector for expression in BL21 (DE3) Star cells. An LB culture containing 50 ug/ml carbenicillin (250 mL) was grown overnight at 37° C. The following day the culture was cooled on ice for about 10-15 minutes and divided equally into two new 125 mL cultures. 125 ml of fresh LB broth containing carbenicillin was added to each flask bringing the volume of each flask to 250 ml. Cultures were shaken at 18° C. before induction with IPTG (1.0 mM) for 18-24 h. The bacterial pellet was frozen at −80° C. until protein purification. Cells were lysed with Bacterial Protein Extraction Reagent (Thermo Scientific) on ice for 10-15 min. Supernatant was obtained after centrifugation of lysate at 21,000×g for 15 min at 4° C. Supernatant was incubated for 30 minutes at 4° C. with rotation with HisPur Cobalt Resin (Thermo Scientific), pre-washed with Wash Buffer (50 mM Hepes pH 7.8, 120 mM KCl, 20 mM NaCl, 10 mM Imidazole). Resin was added to a gravity column that was allowed to empty through gravity flow. The resin was washed with Wash buffer until no more protein is eluted off the column as determined by Bradford assay. A second wash was performed with Wash buffer containing 300 mM NaCl as in the previous wash step. Bound protein was eluted in 50 mM Hepes pH 7.8, 120 mM KCl, 20 mM NaCl, 250 mM Imidazole. Protein was dialyzed overnight in 50 mM Hepes pH 7.8, 120 mM KCl, 20 mM NaCl and 10% glycerol, with two buffer exchanges. Dialyzed protein was concentrated in a Corning Spin-X concentrator and assayed for activity using the IMAP FP Progressive Screening Expression kit (Molecular Devices, catalog #R8127) following the manufacturer's protocol.
(§1) Plasmodium falciparum PKG (PfPKG) and human PKG (hPKG) kinase activity was assayed using a commercial immobilized metal ion affinity-based fluorescence polarization (IMAP) assay according to the manufactures protocol (Molecular Devices). Briefly, kinase assays (20 μl in black half volume 96 well microtiter plates) contained; 10 mM Tris-HCl, pH 7.2, 10 mM MgCl2, 0.05% NaN3, 0.01% Tween® 20, 10 uM ATP, 1 uM cGMP and 21 ng of recombinant enzyme per well. Compounds were preincubated with enzyme at 25° C. for 15 minutes and reactions were initiated with addition of 120 nM fluorescent peptide substrates, FAM-PKAtide for PfPKG and FAM-IP3R for hPKG (Molecular Devices). Fluorescent polarization was measured using a Synergy 2 Microplate reader (BioTek, Winooski, Vt.). Fluorescent polarization was read in parallel and perpendicular with an excitation wavelength of 485 nm and an emission wavelength of 528 nm. IC50 data were analyzed using a four parameter logistic curve fit using Microsoft Excel Solver.

[2] = tested on: human PKG (hPKG); assay: Human PKG IMAP fluorescence polarization kinase assay; assay type: biochemical; conditions: compound at 10 μm; recombinant hPKG, 10 uM ATP, 1 uM cGMP, FAM-IP3R substrate
From the text: Human PKG, cloned into a pENTR221 vector, was obtained from DNASU.org. (HsCD00351766). It was cloned into a mammalian expression plasmid, Gateway pDEST27 (Invitrogen) for expression as a GST fusion protein, using LR Clonase II Plus enzyme (Invitrogen). The hPKG-pDEST27 plasmid was amplified in DH5a Max Efficiency Competent Cells and purified with a PureYield Plasmid Midiprep System (Promega) following the manufactures protocol. Expi293 cells were transfected with hPKG-pDEST27 using the Expifectamine 293 Transfection Kit (Gibco). After 18 hours, enhancing reagent (Gibco) was added. Cells were then collected 48 hours post-enhancing, centrifuged at 2000×g for 10 min, washed in ice cold PBS and frozen as a pellet at −80° C. until protein purification. The cell pellet was lysed with Mammalian Protein Extraction Reagent (Thermo Fisher) for 10-15 minutes. The lysate was centrifuged at 21,000×g for 15 minutes at 4° C. The supernatant was incubated for 1 h at 4° C. with glutathione resin that was pre-washed 10 times with ice cold Wash Buffer (50 mM Hepes pH 7.8, 120 mM KCl, 20 mM NaCl, 10% glycerol). The resin was loaded onto a column and washed with resin wash buffer by gravity flow until no more protein was detectable in the washes by Bradford assay. Protein was eluted with 10 mg/ml glutathione in Wash buffer. The protein was concentrated using a 30K MWCO Corning Spin X concentrator and assayed for activity as described above.
as §1

[3] = recombinant PfPKG, 10 uM ATP, 1 uM cGMP, FAM-PKAtide substrate, read-out: PfPKG (μm)

T1 sequence (Q8I719 whole entry): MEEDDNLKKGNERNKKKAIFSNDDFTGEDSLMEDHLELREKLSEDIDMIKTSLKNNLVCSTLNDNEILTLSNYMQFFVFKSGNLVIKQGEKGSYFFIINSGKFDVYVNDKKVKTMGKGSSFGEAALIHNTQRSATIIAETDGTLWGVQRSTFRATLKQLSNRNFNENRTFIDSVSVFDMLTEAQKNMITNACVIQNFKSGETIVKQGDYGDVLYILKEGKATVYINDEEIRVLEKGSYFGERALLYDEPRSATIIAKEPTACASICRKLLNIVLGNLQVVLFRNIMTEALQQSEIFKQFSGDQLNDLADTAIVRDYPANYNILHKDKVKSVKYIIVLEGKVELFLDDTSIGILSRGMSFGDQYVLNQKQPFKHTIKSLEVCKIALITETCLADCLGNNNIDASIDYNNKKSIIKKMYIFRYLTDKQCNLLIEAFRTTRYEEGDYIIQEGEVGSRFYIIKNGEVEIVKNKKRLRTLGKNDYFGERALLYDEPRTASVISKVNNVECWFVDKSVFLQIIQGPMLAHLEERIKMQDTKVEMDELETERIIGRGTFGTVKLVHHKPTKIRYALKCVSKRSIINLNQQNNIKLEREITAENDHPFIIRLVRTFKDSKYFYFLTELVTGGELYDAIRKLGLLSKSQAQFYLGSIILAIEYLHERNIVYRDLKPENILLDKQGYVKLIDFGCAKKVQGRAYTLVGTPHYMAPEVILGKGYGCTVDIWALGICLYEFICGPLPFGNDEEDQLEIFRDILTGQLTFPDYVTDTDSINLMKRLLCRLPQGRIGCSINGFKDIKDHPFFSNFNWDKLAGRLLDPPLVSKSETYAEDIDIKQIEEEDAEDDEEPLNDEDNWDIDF

IC50 [1, 3] [µM]	Human PKG (10 μm) [2]	SMILES	IC50 [1] [µM]	IC50 ([1]; read-out: PfPKG (μm), recombinant PfPKG, 10 uM ATP, 1 uM cGMP, FAM-PKAtide substrate) [µM]
< 1	–	C[C@H]1C[C@H](c2cc(-c3ccncc3)c(-c3ccc(F)cc3)[nH]2)CCN1C (single isomer, unassigned) [Example 30, 4-(5-(trans-1,2-dimethylpiperidin-4-yl)-2-(4-fluorophenyl)-1H-pyrrol-3-yl)pyridine]	–	–
< 1	30	Cc1cc(-c2cc(C3CCN(C)CC3)[nH]c2-c2ccc(F)cc2)ccn1 [Example 4, 4-(2-(4-fluorophenyl)-5-(1-methylpiperidin-4-yl)-1H-pyrrol-3-yl)-2-methylpyridine]	–	–
< 1	12	CN1CCC(c2cc(-c3ccncc3C#N)c(-c3ccc(F)cc3)[nH]2)CC1 [Example 8, 4-(2-(4-fluorophenyl)-5-(1-methylpiperidin-4-yl)-1H-pyrrol-3-yl)nicotinonitrile]	–	–
< 1	16	CN1CCC(c2cc(-c3ccnc(C#N)c3)c(-c3ccc(F)cc3)[nH]2)CC1 [Example 9, 4-(2-(4-fluorophenyl)-5-(1-methylpiperidin-4-yl)-1H-pyrrol-3-yl)picolinonitrile]	–	–
< 1	35	CN1CCc2c(ccc3c(-c4ccncc4)c(-c4ccc(F)cc4)[nH]c23)C1 [Example 11, 2-(4-fluorophenyl)-7-methyl-3-(pyridin-4-yl)-6,7,8,9-tetrahydro-1H-pyrrolo[2,3-f]isoquinoline]	–	–
< 1	−35	CN1CCC(c2cc(-c3ccn4nnnc4c3)c(-c3ccc(F)cc3)[nH]2)CC1 [Example 12, 7-(2-(4-fluorophenyl)-5-(1-methylpiperidin-4-yl)-1H-pyrrol-3-yl)tetrazolo[1,5-a]pyridine]	–	–
< 1	−2	CN1CCC(c2cc(-c3ccncc3C(N)=O)c(-c3ccc(F)cc3)[nH]2)CC1 [Example 13, 4-(2-(4-fluorophenyl)-5-(1-methylpiperidin-4-yl)-1H-pyrrol-3-yl)nicotinamide]	–	–
< 1	52	CN1CCC(c2[nH]c(-c3ccc(F)cc3)c(-c3ccncc3)c2Br)CC1 [Example 15, 4-(4-bromo-2-(4-fluorophenyl)-5-(1-methylpiperidin-4-yl)-1H-pyrrol-3-yl)pyridine]	–	–
< 1	34	C=Cc1c(C2CCN(C)CC2)[nH]c(-c2ccc(F)cc2)c1-c1ccncc1 [Example 17, 4-(2-(4-fluorophenyl)-5-(1-methylpiperidin-4-yl)-4-vinyl-1H-pyrrol-3-yl)pyridine]	–	–
< 1	57	CN1CCC(c2[nH]c(-c3ccc(F)cc3)c(-c3ccncc3)c2C#N)CC1 [Example 18, 5-(4-fluorophenyl)-2-(1-methylpiperidin-4-yl)-4-(pyridin-4-yl)-1H-pyrrole-3-carbonitrile]	–	–
< 1	−8	CN1CCC(c2[nH]c(-c3ccc(F)cc3)c(-c3ccncc3)c2C(N)=O)CC1 [Example 19, 5-(4-fluorophenyl)-2-(1-methylpiperidin-4-yl)-4-(pyridin-4-yl)-1H-pyrrole-3-carboxamide]	–	–

The next lines start with the compound.

SMILES	IC50 [1, 3] [µM]	Human PKG (10 μm) [2]	IC50 [1] [µM]	IC50 ([1]; read-out: PfPKG (μm), recombinant PfPKG, 10 uM ATP, 1 uM cGMP, FAM-PKAtide substrate) [µM]
C[C@H]1C[C@@H](c2cc(-c3ccncc3)c(-c3ccc(F)cc3)[nH]2)CCN1C (single isomer, unassigned) [Example 29, 4-(5-(cis-1,2-dimethylpiperidin-4-yl)-2-(4-fluorophenyl)-1H-pyrrol-3-yl)pyridine]	< 1	26	–	–
C[C@@H]1CN(C)CC[C@@H]1c1cc(-c2ccncc2)c(-c2ccc(F)cc2)[nH]1 (single isomer, unassigned) [Example 31, 4-(5-(cis-1,3-dimethylpiperidin-4-yl)-2-(4-fluorophenyl)-1H-pyrrol-3-yl)pyridine]	–	82	< 1	–
C[C@@H]1CN(C)CC[C@H]1c1cc(-c2ccncc2)c(-c2ccc(F)cc2)[nH]1 (single isomer, unassigned) [Example 32, 4-(5-(trans-1,3-dimethylpiperidin-4-yl)-2-(4-fluorophenyl)-1H-pyrrol-3-yl)pyridine]	–	66	–	< 1
CN1CCC(c2cc(-c3ccncc3Br)c(-c3ccc(F)cc3)[nH]2)CC1 [Example 1, 3-bromo-4-(2-(4-fluorophenyl)-5-(1-methylpiperidin-4-yl)-1H-pyrrol-3-yl)pyridine]	< 1	39	–	–
CN1CCC(c2cc(-c3ccnc(Br)c3)c(-c3ccc(F)cc3)[nH]2)CC1 [Example 2, 2-bromo-4-(2-(4-fluorophenyl)-5-(1-methylpiperidin-4-yl)-1H-pyrrol-3-yl)pyridine]	< 1	60	–	–
Cc1cnccc1-c1cc(C2CCN(C)CC2)[nH]c1-c1ccc(F)cc1 [Example 3, 4-(2-(4-fluorophenyl)-5-(1-methylpiperidin-4-yl)-1H-pyrrol-3-yl)-3-methylpyridine]	< 1	45	–	–
CN1CCC(c2cc(-c3ccnc(C(N)=O)c3)c(-c3ccc(F)cc3)[nH]2)CC1 [Example 5, 4-(2-(4-fluorophenyl)-5-(1-methylpiperidin-4-yl)-1H-pyrrol-3-yl)picolinamide]	< 1	28	–	–
CN1CCC(c2cc(-c3ccncc3CO)c(-c3ccc(F)cc3)[nH]2)CC1 [Example 6, (4-(2-(4-fluorophenyl)-5-(1-methylpiperidin-4-yl)-1H-pyrrol-3-yl)pyridin-3-yl)methanol]	< 1	−1	–	–
CN1CCC(c2cc(-c3ccnc(N)c3)c(-c3ccc(F)cc3)[nH]2)CC1 [Example 7, 4-(2-(4-fluorophenyl)-5-(1-methylpiperidin-4-yl)-1H-pyrrol-3-yl)pyridin-2-amine]	< 1	48	–	–
CC(O)c1cc(-c2cc(C3CCN(C)CC3)[nH]c2-c2ccc(F)cc2)ccn1 (centres unmarked) [Example 10, 1-(4-(2-(4-fluorophenyl)-5-(1-methylpiperidin-4-yl)-1H-pyrrol-3-yl)pyridin-2-yl)ethan-1-ol]	< 1	−4	–	–
CN1CCC(c2cc(-c3ccncc3)c(-c3ccc(F)cc3)n2C)CC1 [Example 14, 4-(2-(4-fluorophenyl)-1-methyl-5-(1-methylpiperidin-4-yl)-1H-pyrrol-3-yl)pyridine]	< 1	14	–	–
CCOC(=O)c1c(C2CCN(C)CC2)[nH]c(-c2ccc(F)cc2)c1-c1ccncc1 [Example 16, Ethyl 5-(4-fluorophenyl)-2-(1-methylpiperidin-4-yl)-4-(pyridin-4-yl)-1H-pyrrole-3-carboxylate]	< 1	18	–	–
CC(O)c1c(C2CCN(C)CC2)[nH]c(-c2ccc(F)cc2)c1-c1ccncc1 (centres unmarked) [Example 20, 1-(5-(4-fluorophenyl)-2-(1-methylpiperidin-4-yl)-4-(pyridin-4-yl)-1H-pyrrol-3-yl)ethan-1-ol]	< 1	3	–	–
